# US20120202891A1, “Cannabinoid-Containing Compositions and Methods for Their Use” (UNIVERSITY OF KENTUCKY RESEARCH FOUNDATION, priority 2009, published 2012)
# Values joined by “and” are separate entries in the source; they are usually repeats but may differ in a detail not shown here. Identical values can stand only once. “Also recorded” adds a separate entry of the source. Like-named read-outs stand apart in the source and are kept apart here. Marks after values point to notes of the source that are not given here.
# Experiments:
# [1] = tested on: CFA mono-arthritic knee joints in Sprague-Dawley rats; assay: Knee joint circumference in CFA-induced monoarthritis; type: in vivo, rat; conditions: Post-CBD, four consecutive days (day 4), mean ± SD
# [2] = tested on: CFA mono-arthritic knee joints in Sprague-Dawley rats; assay: Knee joint temperature in CFA-induced monoarthritis; type: in vivo, rat; conditions: for Knee joint temperature: Post-CBD, four consecutive days (day 4), mean ± SD
# [3] = tested on: rats with CFA induced mono-arthritis; assay: Secondary thermal hyperalgesia, paw withdrawal latency (PWL) test, CFA rats; type: in vivo, rat
# normal rats = assay: Paw withdrawal latency (PWL) test, normal rats; type: in vivo, rat; conditions: any CBD dose (0.6, 3.1, 6.2 mg/d)
# Protocol: Secondary thermal hyperalgesia was assessed with the paw withdrawal latency (PWL) test (Hargreaves et al. (1988) Pain 32: 77-88). PWLs were measured in response to a radiant heat source shone on one hind paw of the animals from beneath a glass top table. A shortened PWL response in animals with knee joint inflammation was indicative of secondary thermal hyperalgesia. Animals were placed in separate plastic cubicles (4×4×10 in) on a glass top table (2 mm thickness of glass) and allowed to adapt to their new environment for 20-30 min before testing. A small movable metal box that focused a high-intensity light beam through an aperture (0.5 cm×0.5 cm) was attached to an on/off switch and a digital timer. […] At that time, the light is switched off and the number of seconds on the digital timer recorded as the PWL (sec). […] A mean of the 5 trials was calculated for each animal. […]
# (§1) Baseline parameters (body weight, knee joint temperature, and knee joint circumference) were obtained before the knee injection of rats with CFA. […] Exploratory activity was monitored prior to initial gel application and on the third day post gel application (after 6 h). […] Blood samples were obtained for CBD plasma quantification, and tissues (knee joints, dorsal root ganglia, spinal cord, brain) were collected after perfusion. […]
# normal (non-CFA) rats = assay: Open field exploratory behavioral activity; type: in vivo, rat; conditions: 0.6 to 62.3 mg/d, pre-dose versus post-dose and among dose groups
# Protocol: Exploratory behavioral activity of the rats was monitored using the Flexfield Animal Activity System (San Diego Instruments; San Diego, Calif.) with a Photobeam Activity System software coupled to a computer according to previously published methods by Zhang et al., (2004) Pharmacol Biochem Behav 77: 145-153. Briefly, six main parameters were recorded: rearing events and rearing time, active time and resting time, total activity (i.e. number of photobeams disturbed in the x-y-z planes while the rat was moving around in the box or involved in stationary movement such as grooming), and distance traveled. Activity testing was conducted in an isolated, temperature controlled area at similar times daily in order to provide consistent results.
# as §1, with “CFA. PWL test and exploratory activity testing were also conducted prior to CFA injection. Rats were anesthetized with a short term anesthetic and the left knee joint cavity was injected with CFA for induction of mono-arthritis.” for “CFA.”
# [4] = Plasma CBD concentration after topical gel application (LC/MS); type: in vivo, rat; conditions: plasma concentration versus dose, 0.6, 3.1 and 6.2 mg/d
# Protocol: Baseline parameters (body weight, knee joint temperature, and knee joint circumference) were obtained before the knee injection of rats with CFA. PWL test and exploratory activity testing were also conducted prior to CFA injection. Rats were anesthetized with a short term anesthetic and the left knee joint cavity was injected with CFA for induction of mono-arthritis. On day 3, the back of each animal was shaved. […] Rats received daily treatments for four consecutive days of either vehicle gel, or CBD gel. Gel was applied to the skin in a templated region on the dorsal surface of the rat and rubbed into the skin for 30 sec to ensure complete coverage. The nitrile template was used to ensure specific area reproducibility. […] Exploratory activity was monitored prior to initial gel application and on the third day post gel application (after 6 h). […] Blood samples were obtained for CBD plasma quantification, and tissues (knee joints, dorsal root ganglia, spinal cord, brain) were collected after perfusion. […]
# The LC/MS system used to analyze samples was comprised of a Waters Alliance 2695 pump and autosampler, a Micromass™ ZQ detector, and 996 photodiode array detector with MassLynx™ software (Waters Corp., Milford, Mass.). […] The ZQ detector was used with an electrospray ionization (ESI) probe set for single ion monitoring (SIM) for cannabidiol quantification. […]
# [5] = cited from earlier work
# [6] = hairless guinea pigs, 1% hydroalcoholic CBD gel, up to 8 h post application; cited from earlier work
# CB2 = CB2 (Homo sapiens, UniProt P34972); conditions: cited from earlier work
# Chain of CB2 (P34972 whole entry, species assumed): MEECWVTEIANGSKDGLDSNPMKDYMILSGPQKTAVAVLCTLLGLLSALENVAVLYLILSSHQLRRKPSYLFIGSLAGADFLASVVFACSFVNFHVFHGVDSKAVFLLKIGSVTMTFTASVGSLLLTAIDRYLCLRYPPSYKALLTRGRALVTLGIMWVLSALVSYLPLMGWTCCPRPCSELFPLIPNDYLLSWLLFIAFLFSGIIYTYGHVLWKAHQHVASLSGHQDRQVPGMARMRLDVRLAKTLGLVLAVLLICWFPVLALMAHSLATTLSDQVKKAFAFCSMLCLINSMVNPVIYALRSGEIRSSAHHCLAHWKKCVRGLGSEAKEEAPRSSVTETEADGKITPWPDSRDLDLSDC
smiles,measurement,setting,value
"C=C(C)C1CCC(C)=CC1c1c(O)cc(CCCCC)cc1O (stereo not drawn) [CBD, 2-[3-methyl-6-(1-methylethenyl)-2-cyclohexen-1-yl]-5-pentyl-1,3-benzenedi-ol]",Knee joint circumference,[1]; 0.6 mg/d CBD gel on skin,7.0 ± 0.3^b cm
same,Knee joint circumference,[1]; 3.1 mg/d CBD gel on skin,7.1 ± 0.3^b cm
same,Knee joint circumference,[1]; 6.2 mg/d CBD gel on skin,6.6±0.2 cm and 6.6 ± 0.2^b* cm
same,Knee joint circumference,[1]; 62.3 mg/d CBD gel on skin,6.6±0.1 cm and 6.6 ± 0.1^a* cm
same,Differences in knee joint temperature among the treatment groups,"[2]; 0.6 to 62.3 mg/d CBD versus vehicle gel, p>0.05",no significant differences
same,Knee joint temperature,[2]; 0.6 mg/d,31.2 ± 0.7^b ° C.
same,Knee joint temperature,[2]; 3.1 mg/d,30.6 ± 0.6^b ° C.
same,Knee joint temperature,[2]; 6.2 mg/d,31.7 ± 2.1^b ° C.
same,Knee joint temperature,[2]; 62.3 mg/d,30.2 ± 0.9^a ° C.
same,"PWL scores, improvement","[3]; 0.6 mg/d and 3.1 mg/d, day 4",did not have improved PWL scores
same,"PWL, improvement compared to CFA rats receiving vehicle gel","[3]; 6.2 mg/d, 4 h (d 1) post CBD dosing, p<0.05",improvement
same,Effect on PWL in normal animals,normal rats,no effect; also recorded: not affected
same,"Exploratory activities, six parameters (rearing events, rearing time, total beams broken, distance traveled, active time, resting time), differences",normal (non-CFA) rats,No significant (p>0.05) differences; also recorded: no differences in activity measurements
same,"Linear pharmacokinetic correlation, slope",[4],1.0
same,Cmax plasma concentration,"[5]; hairless guinea pigs dosed once with 6.2 mg/d CBD gel, n=3",45.8 ± 8.4 ng/mL
same,Cmax plasma concentration,"[5]; hairless guinea pigs, 6.2 mg/d CBD gel, after 3 consecutive days of gel application, n=5",85.6 ± 48.4 ng/mL
same,Time out to which CBD plasma concentrations were detected,"[5]; hairless guinea pigs, after a single initial gel application",120 h
same,Tmax,"[5]; hairless guinea pigs, multiple applications",40.0 ± 14.5 h
same,Tmax,"[5]; hairless guinea pigs, single application",6.7 ± 2.1 h
same,Residual drug remaining on the skin surface,[6],approximately 15%
same,Binding affinity for CB2,CB2,little binding affinity
